Data as given in patent US6403576B1, “Antifungal and antiparasitic compounds” (priority 1998, dated 2002).
Converted amounts (≈) assume the structure as drawn. Counter-ions that a name gives are not always drawn. Like-named read-outs stand apart in the source and are kept apart here.

Key:
[1] = tested on: T.b. brucei Lab 110 EATRO; assay: Growth of bloodform trypanosomes in vitro, IC50 at 48 h; assay type: cell-based, Trypanosoma brucei brucei; settings: for IC50: Trypanosoma brucei
Text: (§1) Trypanosome (a) IN VITRO drug screening method: 14 clinical isolates of Trypanosoma brucei rhodesiense (agent of East African Sleeping Sickness) many of which are refractory to standard trypanocides such as diamidines and melarsoprol (Bacchi et al., 1990, Antimicrob Agents Chemother 34, 1183-1188) are maintained as laboratory infections in rats and mice and as frozen stabilates of blood forms. Six of these isolates have been cultivated as blood forms in modified Iscove's medium (Hirumi & Hirumi, 1989, J Parasitol 75, 985-989). These cultivated blood forms are fully infective and serve as the initial screen for trypanocides based on a 24 well culture plate system and readings done on duplicate wells using a Coulter Counter (Bacchi and Yartlett, 1993, Acta Tropica 54, 225-236; Bacchi et al., 1996, Antimicrob Agents Chemother 4, 1448-1453).
(§2) The trypanosomes studied were Trypanosoma brucei brucei Lab 110 EATRO, which is pathogenic to cattle and other livestock, and several strains of Trypanosoma brucei rhodesiense, a parasite of humans, domestic and wild animals. Strains of T. b. rhodesiense included drug resistant clinical isolates KETRI 243 and 269 and KETRI 243 As-10-3, a highly melarsen- and diamidine-resistant clone of KETRI 243. The 19 extracts were tested in an in vitro screen using a semi-defined medium for growth of bloodstream trypomastigotes at 37° C. (Hirumi & Hirumi, 1989, supra) to determine IC50 values (Bacchi et al., 1996, supra).
(§3) Inhibitory of cholesterol synthesis, metabolism, and/or excretion described above in the detailed description were tested versus trypanosome isolates grown as bloodforms in HMI-18 medium containing 10% fetal bovine serum.

[2] = tested on: T.b. rhodesiense KETRI 243; assay: as above; assay type: cell-based, Trypanosoma brucei rhodesiense; settings: for IC50: Trypanosoma brucei, RHODESIENSE
Text: as §1, with “1448-1453). This screen has proven highly reproducible, needs minimal drug since the volume is limited (1 ml medium/well) and is complete after 48 h. It has proven to be highly predictive of in vivo activity (e.g., Brun et al., 1996, Antimicrob Agents Chemother 40, 1442-1447; Bacchi et al., 1996, supra).” for “1448-1453).”
as §2
as §3, with “Numerous similarities in leishmanial and trypanosomal lipid uptake and metabolism may explain common natural product drug susceptibility. Inhibitory” for “Inhibitory”

[3] = tested on: T.b. rhodesiense KETRI 269; assay: as above; assay type: cell-based, Trypanosoma brucei rhodesiense; settings: for IC50: Trypanosoma brucei, RHODESIENSE
Text: as §1, with “1448-1453). This screen has proven highly reproducible, needs minimal drug since the volume is limited (1 ml medium/well) and is complete after 48 h. It has proven to be highly predictive of in vivo activity (e.g., Brun et al., 1996, Antimicrob Agents Chemother 40, 1442-1447; Bacchi et al., 1996, supra).” for “1448-1453).”
as §2
as §3, with “Numerous similarities in leishmanial and trypanosomal lipid uptake and metabolism may explain common natural product drug susceptibility. Inhibitory” for “Inhibitory”

[4] = tested on: T.b. rhodesiense KETRI 243 As-10-3; assay: as above; assay type: cell-based; settings: Trypanosoma brucei
Text: as §1, with “1448-1453). This screen has proven highly reproducible, needs minimal drug since the volume is limited (1 ml medium/well) and is complete after 48 h. It has proven to be highly predictive of in vivo activity (e.g., Brun et al., 1996, Antimicrob Agents Chemother 40, 1442-1447; Bacchi et al., 1996, supra).” for “1448-1453).”
as §2
as §3, with “Numerous similarities in leishmanial and trypanosomal lipid uptake and metabolism may explain common natural product drug susceptibility. Inhibitory” for “Inhibitory”

Squalene Oxidase = Squalene Oxidase (Homo sapiens, UniProt Q14534); settings: Abe et al, 1994; cited from earlier work
Sequence of Squalene Oxidase (Q14534 whole entry): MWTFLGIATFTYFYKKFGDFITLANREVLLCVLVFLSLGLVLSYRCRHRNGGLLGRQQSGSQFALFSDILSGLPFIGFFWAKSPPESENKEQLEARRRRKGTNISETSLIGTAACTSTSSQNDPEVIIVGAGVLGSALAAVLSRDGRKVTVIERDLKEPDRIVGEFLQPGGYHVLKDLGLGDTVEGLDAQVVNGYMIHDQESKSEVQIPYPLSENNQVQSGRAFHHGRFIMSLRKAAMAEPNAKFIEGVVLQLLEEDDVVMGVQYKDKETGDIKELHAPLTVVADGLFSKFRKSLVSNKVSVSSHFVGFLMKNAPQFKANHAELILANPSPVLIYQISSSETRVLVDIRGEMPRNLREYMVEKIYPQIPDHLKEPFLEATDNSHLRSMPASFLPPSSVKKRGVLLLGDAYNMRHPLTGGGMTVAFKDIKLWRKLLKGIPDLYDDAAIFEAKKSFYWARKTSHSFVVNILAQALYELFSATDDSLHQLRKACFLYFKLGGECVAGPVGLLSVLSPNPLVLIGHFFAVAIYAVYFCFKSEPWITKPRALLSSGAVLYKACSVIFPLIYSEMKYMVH

[5] = tested on: macrophage cholesterol synthesis; settings: cited from earlier work
Squalene Synthetase = settings: Abe et al, 1994; cited from earlier work
J-774 A.1 macrophages = settings: 10 uM; not from mevalonate; cited from earlier work
Leishmania = assay: Mevalonate as nutritional supplement of in vitro cultures; assay type: cell-based; settings: mevalonate-fed cultures
Procedure: To investigate this, we used ^14C-mevalonic acid to determine rate of incorporation by Leishmania (1.0 ng/hr/108 parasites at 25° C, using the respirometric assay. We also looked at mevalonic acid catabolism and found mevalonate is sparingly metabolized to CO2 (less than 1/25 the rate of aspartic acid metabolism, a most rapidly catabolized amino acid, Jackson, et al., 1989, Am J Trop Med Hyg 41, 318-330) even when the promastigotes are maintained under starvation condition for 30 minutes. When mevalonate was added as a nutritional supplement the parasites grew profusely but less rapidly than parallel unsupplemented control cultures. […] Given these preliminary observations: it appears Leishmania (a) incorporate mevalonic acid readily from their environment; (b) catabolism is spared even under starvation conditions; and (c) mevalonic acid can act as a nutritional supplement in vitro.

[6] = Table 7, HMI-18 medium, 10% fetal bovine serum, 48 h
[7] = Table 7, HMI-18 medium, 10% fetal bovine serum, 48 h, read-out: IC50 Lab 110 EATRO
[8] = Table 7, HMI-18 medium, 10% fetal bovine serum, 48 h, read-out: IC50 243
[9] = Table 7, HMI-18 medium, 10% fetal bovine serum, 48 h, read-out: IC50 269
[10] = read-out: IC50 KETRI 243 As-103

CC(C)n1c(/C=C/C(O)CC(O)CC(=O)O)c(-c2ccc(F)cc2)c2ccccc21 (racemic) [Lescol, 6-Heptenoic acid, 3,5-dihydro-7-[3-(4-fluorophenyl)-1-(1-methylethyl)-1H-indol-2-yl-]-[R*,S*-(E)]-, (+−)-]
IC50 Lab 110 EATRO [1, 6]: >100 µg/mL
IC50 243 [2, 6]: >100 µg/mL

CC[C@H](C)C(=O)O[C@H]1C[C@@H](C)C=C2C=C[C@H](C)[C@H](CC[C@@H]3C[C@@H](O)CC(=O)O3)[C@H]21 (relative stereo) [Mevacor, Butanoic acid, 2-methyl-,1,2,3,7,8,8a-hexahydro-3,7-dimethyl-8-[2-(tetrahydro-4-hydroxy-6-oxo-2H-pyran-2-yl)ethyl]-1-naphthalenyl ester,[1S[1alpha(R*),3alpha,7beta,8beta(2S*,4S*), 8abeta]]-]
IC50 Lab 110 EATRO [1]: 3.3 µg/mL (≈ 8.16 µM)
IC50 243 [2, 6]: 4.4 µg/mL (≈ 10.9 µM)
IC50 269 [3, 6]: 6.9 µg/mL (≈ 17.1 µM)

CCC(C)(C)C(=O)O[C@H]1C[C@@H](C)C=C2C=C[C@H](C)[C@H](CC[C@@H]3C[C@@H](O)CC(=O)O3)[C@H]21 (relative stereo) [Zocor, [1S-[1-alpha(beta-S*,delta-S*), 2-alpha, 6-alpha,8-beta(R*),8a-alpha]]2,2-dimethylbutanoic acid 1,2,3,7,8,8a-hexahydro-3,7-dimethyl-8-[2-(tetrahydro-4-hydroxy-6-oxo-2H-pyran-2-yl)ethyl]-1-naphthalenyl ester]
IC50 [1, 7]: 1.33 µg/mL (≈ 3.18 µM)
IC50 [2, 8]: 12.9 µg/mL (≈ 30.8 µM)
IC50 [3, 9]: 7 µg/mL (≈ 16.7 µM)

CCOC(=O)C(C)(C)Oc1ccc(Cl)cc1 [Atromid-S, Propanoic acid, 2-(4-chlorophenoxy)-2-methyl-, ethyl ester]
IC50 [1, 7]: > 100 µg/mL
IC50 [2, 8]: > 100 µg/mL

COCc1c(C(C)C)nc(C(C)C)c(/C=C/[C@@H](O)C[C@@H](O)CC(=O)O)c1-c1ccc(F)cc1 [Baycol, 7-[4-(4-fluorophenyl)-5-(methoxymethyl)-2,6-bis(1-methylethyl)-3-pyridinyl]-3,5-dihydroxy-, monosodium salt, [S-(R*,S*-(E))]]-]
IC50 [1, 7]: 13 µg/mL
IC50 [2, 8]: 7.7 µg/mL
IC50 ([4]; read-out: IC50 243 As 10-3): 52 µg/mL

CN(C/C=C/C#CC(C)(C)C)Cc1cccc2ccccc12 [Lamisil, 1-Naphthalenemethanamine, N-(6,6-dimethyl-2-hepten-4-ynyl)-N-methyl-, (E)-]
IC50 [1, 7]: 1.3 µg/mL (≈ 4.46 µM)
IC50 [2, 8]: 86 µg/mL (≈ 295 µM)
IC50 [3, 9]: 77 µg/mL (≈ 264 µM)
IC50 ([4]; read-out: IC50 243 As 10-3): > 100 µg/mL

Cc1ccc(C)c(OCCCC(C)(C)C(=O)O)c1 [Lopoid, Pentanoic acid, 5-(2,5-dimethylphenoxy)-2,2-dimethyl-]
IC50 [1, 7]: > 100 µg/mL
IC50 [2, 8]: > 100 µg/mL

Nc1nc(N)nc(Nc2ccc([As]=O)cc2)n1 (stereo not shown) [Melarsen Oxide]
IC50 ([1]; 48 h, read-out: IC50 EATRO 110): 0.00077 µg/mL
IC50 ([2]; 48 h, read-out: IC50 KETRI 243): 0.0025 µg/mL
IC50 ([3]; 48 h, read-out: IC50 KETRI 269): 0.0066 µg/mL
IC50 [4, 10]: 0.0072 µg/mL

CCN(C/C=C/C#CC(C)(C)C)Cc1cccc(OCc2cc(-c3ccsc3)cs2)c1 [NB-598]
IC50 (Squalene Oxidase): 0.75 nM

CN(C/C=C/c1ccccc1)Cc1cccc2ccccc12 [Naftifine, 1-Naphthalenemethanamine, N-methyl-N-(3-phenyl-2-propenyl)-(E)]
IC50 (Squalene Oxidase): 930 nM

N=C(N)c1ccc(OCCCCCOc2ccc(C(=N)N)cc2)cc1 [Pentamidine]
IC50 ([1]; Table 1, 48 hr cultures, HMI-18 medium, read-out: IC50 EATRO 110): 0.00048 µg/mL (≈ 0.00141 µM)
IC50 ([2]; Table 1, 48 hr cultures, HMI-18 medium, read-out: IC50 KETRI 243): 0.00186 µg/mL (≈ 0.00546 µM)
IC50 ([3]; Table 1, 48 hr cultures, HMI-18 medium, read-out: IC50 KETRI 269): 0.00192 µg/mL (≈ 0.00564 µM)
IC50 [4, 10]: 0.003 µg/mL (≈ 0.00881 µM)

CC[C@H](C)C(=O)O[C@H]1C[C@H](O)C=C2C=C[C@H](C)[C@H](CC[C@@H](O)C[C@@H](O)CC(=O)O)[C@H]21 [Pravachol, [1S-(1-alpha(beta-S*,delta-S*),2-alpha, 6-alpha,8-beta(R*),8a-alpha]]-1,2,6,7,8,8a-hexahydro-2-methyl-8-(2-methyl-1-oxobutoxy)-beta,delta,6-trihydroxy-1-Naphthaleneheptanoic acid monosodium salt]
IC50 [1, 7]: > 100 µg/mL
IC50 [2, 8]: > 100 µg/mL
LDL increased ([5]; 0.1 mg/ml pravastatin): 119%
concentration that increased cholesterol esterification [5]: ≤ 0.19 mg/mL
concentration that inhibited cholesterol esterification [5]: > 0.19 mg/mL
increased LDL degradation ([5]; humans, 40 mg/day for 8 weeks): 57%
inhibited cholesterol synthesis ([5]; humans, 40 mg/day for 8 weeks): 55-62%

CC(=O)OC1OC(OC2C(OC3CC[C@@]4(C)C(=CCC5C4CC[C@@]4(C)C5CC5OC6(CC[C@@H](C)CO6)[C@@H](C)[C@@]54O)C3)OC(CO)C(O)C2OC2OC(C)C(O)C(O)C2O)C(O)C(O)C1O (stereo partly shown) [SU-1461, Mannispirostan A]
IC50 ([1]; Table 2, secondary extracts, * extracts precipitated in medium after 24 h, read-out: IC50 T.b. brucei 110): 6.4 µg/mL (≈ 6.89 µM)

C=C(CC[C@]12O[C@H](C(=O)O)[C@@](O)(C(=O)O)[C@](C(=O)O)(O1)[C@H](OC(=O)/C=C/[C@@H](C)C[C@@H](C)CC)[C@H]2O)[C@@H](OC(C)=O)[C@H](C)Cc1ccccc1 [Squalestatin 1]
IC50 (Squalene Synthetase): 15.2 nM

C=C(CC[C@]12O[C@H](C(=O)O)[C@@](O)(C(=O)O)[C@](C(=O)O)(O1)[C@H](OC(=O)/C=C/[C@@H](C)C[C@@H](C)CC)[C@H]2O)[C@@H](O)[C@H](C)Cc1ccccc1 [Squalestatin 2]
IC50 (Squalene Synthetase): 15.1 nM

C=C(CC[C@]12O[C@H](C(=O)O)[C@@](O)(C(=O)O)[C@](C(=O)O)(O1)[C@H](O)[C@H]2O)[C@@H](OC(C)=O)[C@H](C)Cc1ccccc1 [Squalestatin 3]
IC50 (Squalene Synthetase): 5.9 nM

C=C(CC[C@]12O[C@H](C(=O)O)[C@@](O)(C(=O)O)[C@](C(=O)O)(O1)[C@H](OC(=O)/C=C/[C@@H](C)C[C@@H](C)CC)[C@H]2O)[C@@H](OC(C)=O)[C@H](C)Cc1ccccc1 [Zaragozic acid A]
IC50 (Squalene Synthetase): 0.078 nM

C/C=C/CCCC/C=C/CCCCC(=O)O[C@@H]1[C@@H](O)[C@@]2(CCC(C)C(O)C(C)C/C=C/c3ccccc3)O[C@H](C(=O)O)[C@@](O)(C(=O)O)[C@]1(C(=O)O)O2 (stereo partly shown) [Zaragozic acid B]
IC50 (Squalene Synthetase): 0.029 nM

CC(=O)O[C@H](CCC[C@]12O[C@H](C(=O)O)[C@@](O)(C(=O)O)[C@](C(=O)O)(O1)[C@H](OC(=O)CC/C=C/[C@H](C)CCCc1ccccc1)[C@H]2O)[C@H](C)Cc1ccccc1 [Zaragozic acid C]
IC50 (Squalene Synthetase): 0.045 nM

CC1=C(/C=C/C(C)=C/C=C/C(C)=C/C=C/C=C(C)/C=C/C=C(C)/C=C/C2=C(C)CCCC2(C)C)C(C)(C)CCC1 [beta-carotene]
cholesterol synthesis inhibited from acetate (J-774 A.1 macrophages): 63%

C[C@@](O)(CCO)CC(=O)O [mevalonic acid]
logarithmic phase growth longer than unsupplemented cultures (Leishmania): 2 fold
duration of logarithmic phase growth (Leishmania; unsupplemented ended at 4-5 days): > 10 days
